Each block holds one compound with its values, some of them ahead of it.
Key:
[1] = system: Bs-preQ1-RS (RNA, riboswitch) AGAGGUUCUAGCUACACCCUCUAUAAAAAACUAA; assay: UV photocrosslinking, denaturing PAGE; conditions: 100 mM K+, 2 mM Mg2+, 50 mM Tris pH 7.5, 5% DMSO, room temperature, 5 µM RNA, 250 µM compound, covalent
[2] = system: Cy5-Tt-preQ1-RS (RNA, riboswitch) CUGGGUCGCAGUAACCCCAGUUAACAAAACAAG; assay: microscale thermophoresis; conditions: 100 mM K+, 2 mM Mg2+, 50 mM Tris-HCl pH 7.5, 5% DMSO, room temperature, 100 nM RNA
[3] = system: Tt-preQ1-RS(G11A) (RNA, riboswitch) CUGGGUCGCAAUAACCCCAGUUAACAAAACAAG; assay: UV photocrosslinking, denaturing PAGE; conditions: 100 mM K+, 2 mM Mg2+; 50 mM Tris pH 7.5; 10 µM RNA, 500 µM compound; covalent; similar to wild type
[4] = system: Tt-preQ1-RS(G4A) (RNA, riboswitch) CUGAGUCGCAGUAACCCCAGUUAACAAAACAAG; assay: UV photocrosslinking, denaturing PAGE; conditions: 100 mM K+, 2 mM Mg2+; 50 mM Tris pH 7.5; 10 µM RNA, 500 µM compound; covalent; about 40% less than wild type
[5] = system: Bs-preQ1-RS full length (RNA, riboswitch) GCGGGAGAGGUUCUAGCUACACCCUCUAUAAAAAACUAGGACGAGCUGUAUCCUUGGAUACGGCCUUUU; assay: UV photocrosslinking, TAMRA click labelling, PAGE; conditions: 100 mM K+, 2 mM Mg2+; 50 mM Tris pH 7.5, 5% DMSO; 1 µM RNA, 250 µM compound; covalent
[6] = system: Ss-preQ1-RS (RNA, riboswitch) AGAGGUUCCUAGCUGAUACCCUCUAUAAAAAACUA; assay: UV photocrosslinking, denaturing PAGE; conditions: 100 mM K+, 2 mM Mg2+; 50 mM Tris pH 7.5, room temperature; 5 µM RNA, 25-250 µM compound; covalent
[7] = system: miR21-hp (RNA, miRNA) GGGUUGACUGUUGAAUCUCAUGGCAACCC; assay: UV photocrosslinking, denaturing PAGE; conditions: 100 mM K+, 2 mM Mg2+; 50 mM Tris pH 7.5; 50:1 compound:RNA; covalent crosslink not detected
[8] = system: SAM-II-WT-RS (RNA, riboswitch) UCGCGCUGAUUUAACCGUAUUGCAAGCGCGUGAUAAAUGUAGCUAAAAAGGG; assay: UV photocrosslinking, denaturing PAGE; conditions: 100 mM K+, 2 mM Mg2+; 50 mM Tris pH 7.5; 50:1 compound:RNA; covalent crosslink not detected
[9] = system: Tt-preQ1-RS (RNA, riboswitch) CUGGGUCGCAGUAACCCCAGUUAACAAAACAAG; assay: X-ray crystallography, 2.80 Å; conditions: without photocrosslinking
[10] = system: Cy5-Bs-preQ1-RS (RNA, riboswitch) AGAGGUUCUAGCUACACCCUCUAUAAAAAACUAA; assay: microscale thermophoresis; conditions: 100 mM K+, 2 mM Mg2+, 50 mM Tris-HCl pH 7.5, 5% DMSO, room temperature, 100 nM RNA
[11] = system: Tt-preQ1-RS (ab 13_14) (RNA, riboswitch, abasic at 13 and 14) CUGGGUCGCAGUNNCCCCAGUUAACAAAACAAG; assay: X-ray crystallography, 1.57 Å; conditions: without photocrosslinking
[12] = system: Tt-preQ1-RS(G5A) (RNA, riboswitch) CUGGAUCGCAGUAACCCCAGUUAACAAAACAAG; assay: UV photocrosslinking, denaturing PAGE; conditions: 100 mM K+, 2 mM Mg2+; 50 mM Tris pH 7.5; 10 µM RNA, 500 µM compound; covalent; similar to wild type
[13] = system: Ss-preQ1-RS (RNA, riboswitch) AGAGGUUCCUAGCUGAUACCCUCUAUAAAAAACUA; assay: competition of photocrosslinking, PAGE; conditions: 100 mM K+, 2 mM Mg2+; 50 mM Tris pH 7.5; probe 11 (250 µM) displaced by 125-1250 µM PreQ1
[14] = system: Bs-preQ1-RS full length (RNA, riboswitch) GCGGGAGAGGUUCUAGCUACACCCUCUAUAAAAAACUAGGACGAGCUGUAUCCUUGGAUACGGCCUUUU; assay: competition of photocrosslinking, TAMRA click labelling, PAGE; conditions: 100 mM K+, 2 mM Mg2+; probe 11 (250 µM) displaced by 500-1000 µM PreQ1, in MCF-7 total RNA
[15] = system: Ss-preQ1-RS (RNA, riboswitch) AGAGGUUCCUAGCUGAUACCCUCUAUAAAAAACUA; assay: UV photocrosslinking, MALDI-TOF; conditions: 100 mM K+, 2 mM Mg2+; 10 µM RNA, 500 µM compound; covalent

% Crosslink efficiency [1]: 31.3 ± 2.9%
apparent dissociation constant ([2]; about 50 x K of PreQ1): 11.03 ± 2.98 µM
binding [3]: yes
binding [4]: yes
binding [5]: yes
binding [6]: yes
binding [7]: no
binding [8]: no
binding [9]: yes
apparent dissociation constant ([10]; about 50 x K of PreQ1): 8.25 ± 2.56 µM
binding [11]: yes
binding [12]: yes
SMILES: C#CCCC1(CCNCc2c[nH]c3nc(N)[nH]c(=O)c23)N=N1

apparent dissociation constant [2]: 0.193 ± 0.04523 µM
binding [13]: yes
binding [14]: yes
apparent dissociation constant [10]: 0.243 ± 0.01639 µM
SMILES: NCc1c[nH]c2nc(N)[nH]c(=O)c12

% Crosslink efficiency [1]: 49.2 ± 3.2%
SMILES: CC1(CCC(=O)NCc2c[nH]c3nc(N)[nH]c(=O)c23)N=N1

% Crosslink efficiency [1]: 39.9 ± 5.3%
SMILES: C#CCCC1(CCC(=O)NCc2c[nH]c3nc(N)[nH]c(=O)c23)N=N1

More lines, now with the values behind:

SMILES: Nc1nc2[nH]cc(CNCCOCCOCCNCc3ccc(C4(C(F)(F)F)N=N4)cc3)c2c(=O)[nH]1
% Crosslink efficiency [1]: 22.0 ± 2.2%

SMILES: Nc1nc2[nH]cc(CNCCOCCOCCOCCNCc3ccc(C4(C(F)(F)F)N=N4)cc3)c2c(=O)[nH]1
% Crosslink efficiency [1]: 19.4 ± 4.4%

SMILES: Nc1nc2[nH]cc(CNCc3ccc(C4(C(F)(F)F)N=N4)cc3)c2c(=O)[nH]1
binding ([1]; trace only): weak

SMILES: Nc1nc2[nH]cc(CNCCC3(CCc4cn(CCOCCOCCOCCNC(=O)CCCC[C@@H]5SC[C@@H]6NC(=O)N[C@@H]65)nn4)N=N3)c2c(=O)[nH]1
binding [15]: yes

Reference: paper PMC8494917 (2021)
